Data from patent publication US20180318197A1, “SOYASAPONIN-CONTAINING COMPOSITION FOR SKIN WHITENING” (AMOREPACIFIC CORPORATION, priority 2015, published 2018).

Columns and labels:
[1] = system: Murine melanoma (B16) cells; experiment: Evaluation of the degree of melanin production inhibition in α-MSH-stimulated B16 cells; type: cell-based; settings: B16 cells with α-MSH; 12.5, 25, 50 or 100 μM soyasaponin Aa; 3 days; absorbance at 490 nm
Method: Murine melanoma (B16) cells purchased from the Korean Cell Line Bank were seeded into each well of a 12-well plate (5×10^4 cells/well) in DMEM (Dulbecco's modified eagle's medium) containing FBS (fetal calf serum) or a medium having growth rates equivalent to or higher than those in the DMEM. The cells were cultured at 37° C. with 5% CO2 until they reached about 80% confluency. After cultivation, the medium was removed and samples were replaced in medium diluted with 12.5, 25, 50 or 100 μM of soyasaponin Aa, or 100 ppm (corresponding to 700 μM) of kojic acid, and then cultured at 37° C. with 5% CO2 for 3 days. At this time, α-MSH (melanin stimulation hormone), which is a substance that allows B16 cells to better form melanin during cultivation, was included together in the medium of the other treatment groups except for the untreated control group. […] The concentration range of the samples was determined through toxicity tests. […] The obtained solution was measured for the absorbance at 490 nm using an ELISA reader (Synergy 2, BioTek. USA), and the amount of protein was determined by the Bradford assay, and then the amount of melanin per constant number of cells or the amount of melanin per constant amount of protein was estimated. […]

[2] = molecular target: T1, melanocyte-derived tyrosinase (melan-a cell extract) (Mus musculus, UniProt P11344); experiment: Cell extract tyrosinase inhibitory activity (DOPA to dopachrome colorimetric reaction); type: biochemical; settings: pH 6.8, substrate DOPA, absorbance at 475 nm
T1 construct: melan-a cell extract mixture; endogenous in cells; host or cells: melan-a cells (cell extract)
T1 sequence (P11344 19-533): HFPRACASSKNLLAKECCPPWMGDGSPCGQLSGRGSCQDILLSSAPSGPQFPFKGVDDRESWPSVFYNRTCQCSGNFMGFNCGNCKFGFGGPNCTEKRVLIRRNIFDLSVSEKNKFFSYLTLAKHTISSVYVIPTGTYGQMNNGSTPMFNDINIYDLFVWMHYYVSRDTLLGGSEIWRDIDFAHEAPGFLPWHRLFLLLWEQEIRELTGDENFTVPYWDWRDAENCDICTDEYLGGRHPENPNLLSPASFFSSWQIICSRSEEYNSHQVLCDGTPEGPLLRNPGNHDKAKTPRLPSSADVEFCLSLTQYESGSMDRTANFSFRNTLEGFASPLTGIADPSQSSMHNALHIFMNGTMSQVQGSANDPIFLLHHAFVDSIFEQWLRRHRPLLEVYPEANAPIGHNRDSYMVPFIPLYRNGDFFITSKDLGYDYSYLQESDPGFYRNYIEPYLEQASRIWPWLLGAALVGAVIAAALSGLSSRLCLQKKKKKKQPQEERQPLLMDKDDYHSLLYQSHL
Method: Tyrosinase is an important enzyme that regulates the first step that is performed to produce melanin in the process of pigmentation, and tyrosinase inhibitory activity is known to be an important efficacy mechanism for whitening. Therefore, in this test example, the ability of soyasaponin to inhibit the activity of tyrosinase was evaluated using a method for inhibiting the activity of cell extract tyrosinase. The method for evaluating the cell extract tyrosinase inhibitory activity is based on a phenomenon that melanocyte-derived tyrosinase causes a colorimeteric reaction by allowing substrate DOPA (3,4-dihydroxyphenylalanine; colorless) to form dopacrome (reddish brown).
Specific experimental methods are as follows. Kojic acid as a positive control and soyasaponin Aa as an evaluation material were prepared by concentrating four times the concentration to be evaluated. Then, the reaction mixture (pH 6.8, 0.1M potassium phosphate buffer, melan-a cell extract mixture) was prepared in a 96 well plate. Since there may be colors depending on the evaluation material, a reaction mixture containing no cell extract liquid was made into a vehicle for background removal. […] Absorbance was measured at 475 nm using an ELISA reader (Synergy2, BioTek, USA) at intervals of 10 minutes until sufficient colorimeteric reaction had occurred.

- activity of tyrosinase (FIG. 5) [2]: effectively inhibited
SMILES: CC(=O)O[C@@H]1[C@@H](OC(C)=O)[C@H](O[C@@H]2[C@@H](O)[C@H](O[C@@H]3[C@H](O)C(C)(C)C[C@H]4C5=CC[C@@H]6[C@@]7(C)CC[C@H](O[C@@H]8O[C@H](C(=O)O)[C@@H](O)[C@H](O)[C@H]8O[C@@H]8O[C@H](CO)[C@H](O)[C@H](O)[C@H]8O[C@@H]8O[C@H](CO)[C@@H](O)[C@H](O)[C@H]8O)[C@](C)(CO)[C@@H]7CC[C@@]6(C)[C@]5(C)CC[C@@]34C)OC[C@@H]2O)OC[C@H]1OC(C)=O [soyasaponin Aa]
- synthesis of melanin (intracellular FIG. 3 and extracellular FIG. 4) [1]: effectively inhibited
